According to article PMC7767178 (International Journal of Molecular Sciences, 2020):
Several values for one entry are separate records, joined by “and”; a condition that tells them apart may be missing. Identical values can stand only once. Like-named read-outs stand apart in the source and are kept apart here.

Legend:
[1] = tested on: A. veronii ACCC61732 genomic DNA; test: CD spectra of genomic DNA with peptides; type: binding; conditions: mass ratios 2.5 and 10.0, 10 min, room temperature
Description: CD spectra were performed to examine the secondary structure of genomic DNA from A. veronii ACCC61732 after incubation with peptides. […] The mixtures were loaded into a cuvette of 1.0-mm path length and scanned from 190 to 330 nm at 25 °C using a Pistar π-180 CD spectrometer (Applied Photophysics Ltd., Surry, UK).

S. aureus ATCC25923 = tested on: S. aureus ATCC25923
Description: (§1) Briefly, the tested strains including Gram-negative bacteria, Gram-positive bacteria, and fungi were cultured to the logarithmic growth phase, diluted to 10^5 CFU/mL, and added into 96-well plates (90 μL/well). Two-fold serial dilutions of peptides or antibiotics dissolved in PBS were added to each well (10 μL/well). […] All experiments were repeated three times.

A. veronii CL0901 = tested on: A. veronii CL0901
Description: as §1

S. hyicus NCTC10350 = tested on: S. hyicus NCTC10350
Description: as §1

[2] = tested on: Aeromonas veronii ACCC61732; conditions: Aeromonas veronii ACCC61732 (MDR); broth dilution, 37 °C, 16–18 h, three experiments
Description: as §1

S. aureus ATCC546 = tested on: S. aureus ATCC546
Description: as §1

[3] = tested on: Pseudomonas aeruginosa CICC21630
Description: as §1

TNF-α = test: Serum cytokine, ELISA, peritonitis model; type: in vivo; conditions: 5 μmol/kg, 24 h after treatment, range over mice
Description: (§2) Sera and organs (livers, kidneys, spleens, and lungs) were collected from the mice at 24 h post-treatment. The organs were homogenized in sterile PBS to evaluate bacterial translocation by colony counting. The levels of cytokines (TNF-α, IL-1β, IL-6, and IL-10) in sera were detected using the ELISA kits.

IL-6 = test: Serum cytokine, ELISA, peritonitis model; type: in vivo; conditions: 5 μmol/kg, 24 h after treatment, range over mice
Description: as §2

IL-1β = test: Serum cytokine, ELISA, peritonitis model; type: in vivo; conditions: 5 μmol/kg, 24 h after treatment, range over mice
Description: as §2

IL-10 = test: Serum cytokine, ELISA, peritonitis model; type: in vivo; conditions: 5 μmol/kg, 24 h after treatment, range over mice
Description: as §2

[4] = tested on: A. veronii ACCC61732 biofilms; test: Mouse model of catheter-associated biofilm infection, bacteria in catheter; type: in vivo, ICR mice; conditions: 5 μmol/kg peptide or CIP 24 h after catheter implantation, catheters collected after seven days, six mice per group
Description: Briefly, the catheter was cut into 1 cm segments; each piece was sterilized with 70% ethanol and then dried by air. Bacterial biofilms were developed on the catheter by placing individual segments into tubes containing 1.0 mL of a cell suspension (1 × 10^8 CFU/mL) in TSB. After incubation for 24 h at 37 °C, colonized catheters were recovered aseptically and rinsed with PBS to remove unbound bacteria. ICR female mice (20 ± 5 g) were anesthetized with isoflurane; the flanks were shaved and the skin was cleansed with alcohol. […] The incision was then covered with intact skin and closed with surgical suture line and the skin was disinfected. […] The untreated mice were used as the negative control and the mice with sterile catheter were used as the blank control. The mice were anesthetized and sacrificed after seven days. The catheters in the back of the mice were collected and thoroughly shaken in sterile PBS.

Salmonella = conditions: range over the strains of Table 2
[5] = tested on: Salmonella typhimurium ATCC14028; type: cell-based
A. veronii ACCC61732 [6] = test: ATP release, BacTiter-Glo; type: cell-based; conditions: 8×, 16× and 32× MIC, 60 min, 37 °C, luminescence, n = 3
Description: The assay was performed for three biological replicates at 37 °C, with luminescence recorded using a Tecan Infinite M1000 Pro plate reader. The fold reduction of ATP was calculated as: Fold reduction ATP = 1 − (Ltreat − Lmedia/Lcontrol − Lmedia), where Ltreat is the luminescence of treated cells, Lmedia is the luminescence of MHB without cells, and Lcontrol is the luminescence of untreated cells. Resultant graphs show mean (n = 3) and SEM for each data point, prepared in Prism 7 [46].

A. veronii ACCC61732 [7] = test: Organ injury in peritonitis model, histology; type: in vivo, mice; conditions: peptides 5 μmol/kg, CIP 1 μmol/kg
Description: Livers, kidneys, spleens, and lungs were removed from mice at 24 h and five days post treatment to evaluate the organ injury. After washing with PBS, the organs were fixed in 4% paraform-aldehyde for 24 h at 4 °C, dehydrated by a graded series of ethanol (75‒95%), and infiltrated with xylene. The organs were then embedded in paraffin wax, sectioned, and stained with hematoxylin and eosin. Finally, the tissue samples were fixed and observed by the light microscope. The CIP-treated mice served as the positive control and the PBS group served as the negative control.

[8] = tested on: A. veronii ACCC61732 mature biofilms; test: Eradication of mature biofilms, crystal violet; type: cell-based; conditions: 16× MIC, 24 h on 24 h biofilm
Description: A. veronii ACCC61732 cells (1 × 10^8 CFU/mL) were cultured in TSB medium in the 96-well plates at 37 °C for 24 h.

A. veronii ACCC61732 [9] = test: Mouse peritonitis model, bacterial translocation to organs; type: in vivo, ICR mice; conditions: 5 μmol/kg, 24 h post-treatment, colony counting
Description: as §2

mouse erythrocytes = test: Hemolysis; type: cell-based; conditions: 256 μg/mL; 8% mouse erythrocyte suspension, 37 °C, 1 h, absorbance 540 nm
Description: To determine the hemolysis of peptides, eyeball blood was collected from 6-week-old SPF ICR mice. The blood was centrifuged at 4 °C for 10 min (1500 rpm), washed three times with 0.9% physiological saline, and diluted to 8% suspension. […] Red blood cell suspensions and peptide solutions (100 μL) were mixed in 96-well plates, centrifuged at 4 °C for 5 min (1500 rpm), and incubated at 37 °C for 1 h. The supernatant was added into a 96-well plate and the UV absorbance was measured at 540 nm using a microplate reader. Physiological saline and 0.1% Triton X-100 were used as 0% and 100% hemolytic controls, respectively. The hemolytic ratio was calculated as follows: Hemolysis (%) = [(Abspeptide − Abssaline)/(Abs0.1%Triton X-100 − Abssaline)] × 100% [38].

Q: With CC(C)[C@H]1NC(=O)CNC(=O)[C@@H](CC(N)=O)NC(=O)[C@@H](CCCNC(=N)N)NC(=O)[C@@H](Cc2ccc(O)cc2)NC(=O)[C@@H](C(C)C)NC(=O)[C@H](NC(=O)[C@H](NC(=O)[C@@H](CC(N)=O)NC(=O)[C@@H](Cc2c[nH]c3ccccc23)NC(=O)[C@@H](C)NC(=O)[C@@H](Cc2ccccc2)NC(=O)CN)C(C)C)CSSC[C@H](C(=O)N[C@H](Cc2c[nH]cn2)C(=O)N[C@H](CCCNC(=N)N)C(=O)N[C@H](CCCNC(=N)N)C(=O)N[C@H](C)C(=O)N[C@H](CC(N)=O)C(N)=O)NC(=O)[C@@H](C(C)C)NC(=O)[C@@H](CCCNC(=N)N)NC1=O [DN6NH2] as the compound, how does the “effect on CD spectrum of genomic DNA” value [1] read?
A: Its value is “elliptic intensity of the positive band declined”.

Q: And the MIC (S. aureus ATCC25923; ATCC25923)?
A: Its MIC is 3.23 µM.

Q: What about the MIC (S. aureus ATCC25923; S. aureus ATCC25923, broth dilution, 37 °C, 16–18 h, three experiments) of the same compound?
A: The MIC was 8 µg/mL.

Q: What about the MIC (A. veronii CL0901) of the same compound?
A: The MIC was 12.93 µM.

Q: What about the MIC (A. veronii CL0901; A. veronii CL0901, broth dilution, 37 °C, 16–18 h, three experiments) of the same compound?
A: Its MIC is 32 µg/mL.

Q: And the MIC (S. hyicus NCTC10350; NCTC10350)?
A: The MIC was 3.23 µM.

Q: What about the MIC (S. hyicus NCTC10350; S. hyicus NCTC10350, broth dilution, 37 °C, 16–18 h, three experiments) of the same compound?
A: The MIC was 8 µg/mL.

Q: What about the MIC [2] of the same compound?
A: Its MIC is 4 μg/mL and 1.62 μM.

Q: What about the MIC (S. aureus ATCC546; ATCC546) of the same compound?
A: The MIC was 6.46 µM.

Q: And the MIC (S. aureus ATCC546; S. aureus ATCC546, broth dilution, 37 °C, 16–18 h, three experiments)?
A: The MIC was 16 µg/mL.

Q: And the MIC ([3]; CICC21630)?
A: The MIC was 3.23 µM.

Q: What about the MIC ([3]; Pseudomonas aeruginosa CICC21630, broth dilution, 37 °C, 16–18 h, three experiments) of the same compound?
A: The MIC was 8 µg/mL.

Q: What about the “serum level of TNF-α” value (TNF-α) of the same compound?
A: Its value is 40.02 to 66.20 pg/mL.

Q: What about the “serum level of IL-6” value (IL-6) of the same compound?
A: Its value is 104.48 to 115.43 pg/mL.

Q: What about the “serum level of IL-1β” value (IL-1β) of the same compound?
A: Its value is 8.17 to 25.94 pg/mL.

Q: And the “serum level of IL-10” value (IL-10)?
A: Its value is 15.94 to 25.46 pg/mL.

Q: What about the “decrease of bacterial cells in the catheter” value [4] of the same compound?
A: The value was 71.55%.

Q: What about the “MIC values against Salmonella” value (Salmonella) of the same compound?
A: Its value is 0.81 to 6.46 µM.

Q: What about the MIC ([5]; ATCC14028) of the same compound?
A: The MIC was 3.23 µM.

Q: And the MIC ([5]; Salmonella typhimurium ATCC14028, broth dilution, 37 °C, 16–18 h, three experiments)?
A: The MIC was 8 µg/mL.

Q: And the ATP release (A. veronii ACCC61732 [6])?
A: Its ATP release is 84.34–86.15%.

Q: And the “effect on injury of liver, spleen, kidney and lung” value (A. veronii ACCC61732 [7])?
A: The value was “remarkably alleviated the injury of the liver and spleen”.

Q: And the “inhibition of mature biofilms” value [8]?
A: The value was 91.90%.

Q: What about the “structure after trypsin treatment, MS analysis” value (trypsin) of the same compound?
A: Its value is “not affected by trypsin”.

Q: What about the “reduction of bacteria in kidneys” value (A. veronii ACCC61732 [9]) of the same compound?
A: The value was 80.10%.

Q: And the “reduction of bacteria in livers” value (A. veronii ACCC61732 [9])?
A: The value was 89.65%.

Q: And the “reduction of bacteria in lungs” value (A. veronii ACCC61732 [9])?
A: The value was 81.61%.

Q: And the “reduction of bacteria in spleens” value (A. veronii ACCC61732 [9])?
A: Its value is 70.38%.

Q: What about the hemolysis (mouse erythrocytes) of the same compound?
A: Its hemolysis is 1.46%.
